Bounds are passed on as bounds.

In the first assay the test system is HT1080 cells (ATCC, cat #CCL-121). Description: HT1080 CellTiter-Glo 2.0 IC50 assay of working examples. The format is cell-based. The following applies: HT-1080, 24 hrs, cells plated with and without 1.5 μM ferrostatin-1, table does not say which, Table 7. On the procedure: Biological evaluation of working examples A1-A47 and B1-B28 was performed in HT1080 cells (ATCC, cat #CCL-121) according to the procedure provided below.
• 1.1 Cells were harvested from flask into cell culture medium and then the cell number count was determined. • 1.2 The cells were suspended with 1.5 μM ferrostatin-1 and without ferrostatin-1. • 1.3 Cells were plated at a density of 1,500 cells per well in a 384-well black sided clear bottom plate, in 25 μL, using electronic multichannel pipette. • 1.4 Plates were covered with lid and spun for 1 min at 1000 rpm, then allowed to incubate overnight at 37° C. under 5% CO2.
• 2.1 Compounds were dissolved at 10 mM stock solution and 10 μl of diluted solution was transferred to a 384 LDV-plate (LABCYTE, LP-0200). A 3 fold, 11-point dilution was performed. • 2.2 Cells were treated with compounds by plate reformat Echo software and spun for 1 min at 1000 rpm. Then incubated at 37° C. for 24 hrs in a CO2 incubator.
• 3.1 The plates were removed from the incubator and allowed to equilibrate to room temperature, at least 30 minutes. • 3.2 CellTiter-Glo® 2.0 Reagent (Promega, G9242) was added (25 μL) to the assay plates and spun for 1 min at 1000 rpm. Then allowed to stand for about 20 minutes before reading luminescence signal on Envision. • 3.3 The IC50 calculations were determined with a nonlinear fit, variable slope (four parameters) log(inhibitor) vs. response model using GraphPad PRISM.
On to `COc1cccc(N(Cc2ccc(F)cc2)C(=O)CCl)c1Cl` [Compound A35, 2-chloro-N-(2-chloro-3-methoxy-phenyl)-N-[(4-fluorophenyl)methyl]acetamide], for which the IC50 is 100 to 1000 nM.
As to `COc1cc(N(Cc2ccc(F)cc2)C(=O)CCl)ccc1C` [Compound A29, 2-chloro-N-[(4-fluorophenyl)methyl]-N-(3-methoxy-4-methyl-phenyl)acetamide], the IC50 lay in the range of 10 to 100 nM.
With `COc1ccc(CN(C(=O)CCl)c2cc(OC)cc(OC)c2)cc1` [Compound A21, 2-chloro-N-(3,5-dimethoxyphenyl)-N-[(4-methoxyphenyl)methyl]acetamide], the IC50 lay in the range of 10 to 100 nM.
Still for that read-out and setting: as for `Cc1cc(C)cc(N(Cc2ccccc2C)C(=O)CCl)c1` [Compound A11, 2-chloro-N-(3,5-dimethylphenyl)-N-(o-tolylmethyl)acetamide], the figure is 100 to 1000 nM; as for `COc1cc(Cl)cc(N(Cc2ccc(F)cc2)C(=O)CCl)c1` [Compound A14, 2-chloro-N-(3-chloro-5-methoxy-phenyl)-N-[(4-fluorophenyl)methyl]acetamide], 100 to 1000 nM; as for `Cc1cc(C)cc(N(Cc2ccccc2Cl)C(=O)CCl)c1` [Compound A6, 2-chloro-N-[(2-chlorophenyl)methyl]-N-(3,5-dimethylphenyl)acetamide], 100 to 1000 nM.
Consider `O=C(CCl)N(Cc1ccc(F)cc1)c1cccc(Cl)c1` [Compound A18, 2-chloro-N-(3-chlorophenyl)-N-[(4-fluorophenyl)methyl]acetamide], for which the half-maximal inhibitory concentration (IC50) fell in the range of 100 to 1000 nM.
`Cc1cc(C)cc(N(Cc2ccc(Cl)cc2)C(=O)CCl)c1` [Compound A4, 2-chloro-N-[(4-chlorophenyl)methyl]-N-(3,5-dimethylphenyl)acetamide] had an IC50 of 100 to 1000 nM.
`COc1cc(OC)cc(N(Cc2ccc(F)c(OC)c2)C(=O)CCl)c1` [Compound A33, 2-chloro-N-(3,5-dimethoxyphenyl)-N-[(4-fluoro-3-methoxy-phenyl)methyl]acetamide] came in with an IC50 of at most 10 nM.
`Cc1ccc(CN(C(=O)CCl)c2cc(C)cc(C)c2)cc1` [Compound A10, 2-chloro-N-(3,5-dimethylphenyl)-N-(p-tolylmethyl)acetamide] displayed an IC50 of 100 to 1000 nM.
Still for that read-out and setting: the figure for `COc1ccc(Cl)c(N(Cc2ccc(F)cc2)C(=O)CCl)c1` [Compound A37, 2-chloro-N-(2-chloro-5-methoxy-phenyl)-N-[(4-fluorophenyl)methyl]acetamide] is 100 to 1000 nM; for `Cc1c(Cl)ccc(N(Cc2ccc(F)cc2)C(=O)CCl)c1Cl` [Compound A42, 2-chloro-N-(2,4-dichloro-3-methyl-phenyl)-N-[(4-fluorophenyl)methyl]acetamide] it is 100 to 1000 nM; for `COc1cc(N(Cc2ccc(F)cc2)C(=O)CCl)ccn1` [Compound A46, 2-chloro-N-[(4-fluorophenyl)methyl]-N-(2-methoxy-4-pyridyl)acetamide] it is 100 to 1000 nM.
Same read-out and setting: as for `O=C(CCl)N(Cc1ccc(F)cc1)c1cnc2[nH]nc(Br)c2c1` [Compound A39, N-(3-bromo-1H-pyrazolo[3,4-b]pyridin-5-yl)-2-chloro-N-[(4-fluorophenyl)methyl]acetamide], the figure is 1000 to 10000 nM.
With `COc1cc(C)cc(N(Cc2ccc(F)cc2)C(=O)CCl)c1` [Compound A25, 2-chloro-N-[(4-fluorophenyl)methyl]-N-(3-methoxy-5-methyl-phenyl)acetamide], the IC50 lay in the range of 100 to 1000 nM.
For `COc1ccccc1CN(C(=O)CCl)c1cc(C)cc(C)c1` [Compound A7, 2-chloro-N-(3,5-dimethylphenyl)-N-[(2-methoxyphenyl)methyl]acetamide], the IC50 lay in the range of 10 to 100 nM.
Same read-out and setting: the figure for `COc1cc(OC)cc(N(Cc2cccc3nsnc23)C(=O)CCl)c1` [Compound A45, N-(2,1,3-benzothiadiazol-4-ylmethyl)-2-chloro-N-(3,5-dimethoxyphenyl)acetamide] is 10 to 100 nM; for `COc1cc(OC)cc(N(Cc2c(Cl)cc(F)cc2Cl)C(=O)CCl)c1` [Compound A26, 2-chloro-N-[(2,6-dichloro-4-fluoro-phenyl)methyl]-N-(3,5-dimethoxyphenyl)acetamide] it is 10 to 100 nM.
Compound `COc1cc(OC)cc(N(Cc2cc(C)cc(F)c2)C(=O)CCl)c1` [Compound A44, 2-chloro-N-(3,5-dimethoxyphenyl)-N-[(3-fluoro-5-methyl-phenyl)methyl]acetamide] returned a 50% inhibitory concentration (IC50) of 10 to 100 nM.
For `O=C(CCl)N(Cc1ccc(F)cc1)c1cc(F)cc(F)c1` [Compound A15, 2-chloro-N-(3,5-difluorophenyl)-N-[(4-fluorophenyl)methyl]acetamide], the IC50 was 1000 to 10000 nM.
In turn, `Cc1cc(C)cc(N(Cc2cccc(Cl)c2)C(=O)CCl)c1` [Compound A9, 2-chloro-N-[(3-chlorophenyl)methyl]-N-(3,5-dimethylphenyl)acetamide] yielded an IC50 of 10 to 100 nM.
For the compound `COc1cc(OC)cc(N(Cc2cc(C#N)ccc2F)C(=O)CCl)c1` [Compound A28, 2-chloro-N-[(5-cyano-2-fluoro-phenyl)methyl]-N-(3,5-dimethoxyphenyl)acetamide], the IC50 fell in the range of 10 to 100 nM.
For `COc1cccc(CN(C(=O)CCl)c2cc(C)cc(C)c2)c1` [Compound A5, 2-chloro-N-(3,5-dimethylphenyl)-N-[(3-methoxyphenyl)methyl]acetamide], the IC50 was in the range of 10 to 100 nM.
In turn, `COc1cc(OC)cc(N(Cc2ccc(C#N)cc2)C(=O)CCl)c1` [Compound A19, 2-chloro-N-[(4-cyanophenyl)methyl]-N-(3,5-dimethoxyphenyl)acetamide] returned an IC50 of 10 to 100 nM.
The compound `COc1cc(OC)cc(N(Cc2c(C)cc(F)cc2C)C(=O)CCl)c1` [Compound A30, 2-chloro-N-(3,5-dimethoxyphenyl)-N-[(4-fluoro-2,6-dimethyl-phenyl)methyl]acetamide] gave an IC50 of at most 10 nM.
Take `Cc1ccc(N(Cc2ccc(F)cc2)C(=O)CCl)cn1` [Compound A47, 2-chloro-N-[(4-fluorophenyl)methyl]-N-(6-methyl-3-pyridyl)acetamide]: the IC50 is above 10000 nM.
On to `COc1c(C)cc(N(Cc2ccc(F)cc2)C(=O)CCl)cc1C` [Compound A40, 2-chloro-N-[(4-fluorophenyl)methyl]-N-(4-methoxy-3,5-dimethyl-phenyl)acetamide], for which the IC50 lay in the range of 10 to 100 nM.
For the compound `COc1ccc(N(Cc2ccc(F)cc2)C(=O)CCl)cc1Cl` [Compound A17, 2-chloro-N-(3-chloro-4-methoxy-phenyl)-N-[(4-fluorophenyl)methyl]acetamide], the half-inhibitory concentration (IC50) was in the range of 100 to 1000 nM.
Compound `O=C(CCl)N(Cc1ccc(F)cc1)C1CCCCC1` [Compound A12, 2-chloro-N-cyclohexyl-N-[(4-fluorophenyl)methyl]acetamide] registered an IC50 of 100 to 1000 nM.
`COc1cc(OC)cc(N(Cc2ccc(F)c(F)c2Cl)C(=O)CCl)c1` [Compound A43, 2-chloro-N-[(2-chloro-3,4-difluoro-phenyl)methyl]-N-(3,5-dimethoxyphenyl)acetamide] showed an IC50 of at most 10 nM.

The assay is the same for the next values; noted with them: HT-1080, 24 hrs, cells plated with and without 1.5 μM ferrostatin-1, table does not say which, Table 8.
In the case of `Cc1cc(C)cc(N(C(=O)CCl)c2nc(-c3ccccc3)cs2)c1` [Compound B11, 2-chloro-N-(3,5-dimethylphenyl)-N-(4-phenylthiazol-2-yl)acetamide], the IC50 was 100 to 1000 nM.
`Cc1cc(C)cc(N(C(=O)CCl)c2nc(-c3ccc(Br)cc3)cs2)c1` [Compound B5, N-[4-(4-bromophenyl)thiazol-2-yl]-2-chloro-N-(3,5-dimethylphenyl)acetamide] yielded an IC50 of 100 to 1000 nM.
In turn, `Cc1cc(C)cc(N(C(=O)CF)c2nc(-c3ccc(Br)cc3)cs2)c1` [Compound B27, N-[4-(4-bromophenyl)thiazol-2-yl]-N-(3,5-dimethylphenyl)-2-fluoro-acetamide] showed an IC50 above 10000 nM.
For the compound `Cc1cc(C)cc(N(C(=O)CI)c2nc(-c3ccc(Br)cc3)cs2)c1` [Compound B21, N-[4-(4-bromophenyl)thiazol-2-yl]-N-(3,5-dimethylphenyl)-2-iodo-acetamide], the IC50 was in the range of 10 to 100 nM.
Consider `O=C(CCl)N(c1cc(F)cc(F)c1)c1nc(-c2ccc(Br)cc2)cs1` [Compound B25, N-[4-(4-bromophenyl)thiazol-2-yl]-2-chloro-N-(3,5-difluorophenyl)acetamide], for which the IC50 was above 10000 nM.
Consider `COc1ccc(-c2csc(N(C(=O)CCl)c3cc(C)cc(C)c3)n2)cc1` [Compound B9, 2-chloro-N-(3,5-dimethylphenyl)-N-[4-(4-methoxyphenyl)thiazol-2-yl]acetamide], for which the concentration for half-maximal inhibition (IC50) lay in the range of 100 to 1000 nM.
On to `C#CC(=O)N(CCCOC)c1nc(-c2ccc(Br)cc2)cs1` [Compound B2, N-[4-(4-bromophenyl)thiazol-2-yl]-N-(3-methoxypropyl)prop-2-ynamide], for which the IC50 lay within 1000 to 10000 nM.
Take `Cc1cc(C)cc(N(C(=O)C2CO2)c2nc(-c3ccc(Br)cc3)cs2)c1` (stereo not drawn) [Compound B28, N-[4-(4-bromophenyl)thiazol-2-yl]-N-(3,5-dimethylphenyl)oxirane-2-carboxamide]: the IC50 was above 10000 nM.
`C#CC(=O)N(c1cc(Cl)cc(Cl)c1)c1nc(-c2ccc(Br)cc2)cs1` [Compound B22, N-[4-(4-bromophenyl)thiazol-2-yl]-N-(3,5-dichlorophenyl)prop-2-ynamide] showed an IC50 of 10 to 100 nM.

For the origin of these results see US20240315994A1, “SMALL MOLECULE MODULATORS OF FERROPTOSIS” (ARPEGGIO BIOSCIENCES, INC., priority 2021, published 2024).
